Target: human NAMPT enzyme (His-hNAMPT) (Homo sapiens (Human), UniProt P43490)
Test: NAMPT enzymatic inhibition assay (fluorescence, NADH product)
Type: biochemical
Conditions: [BPS]; read-out: NAMPT IC50 (μM) [BPS]

Chain of human NAMPT enzyme (His-hNAMPT) (P43490 whole entry): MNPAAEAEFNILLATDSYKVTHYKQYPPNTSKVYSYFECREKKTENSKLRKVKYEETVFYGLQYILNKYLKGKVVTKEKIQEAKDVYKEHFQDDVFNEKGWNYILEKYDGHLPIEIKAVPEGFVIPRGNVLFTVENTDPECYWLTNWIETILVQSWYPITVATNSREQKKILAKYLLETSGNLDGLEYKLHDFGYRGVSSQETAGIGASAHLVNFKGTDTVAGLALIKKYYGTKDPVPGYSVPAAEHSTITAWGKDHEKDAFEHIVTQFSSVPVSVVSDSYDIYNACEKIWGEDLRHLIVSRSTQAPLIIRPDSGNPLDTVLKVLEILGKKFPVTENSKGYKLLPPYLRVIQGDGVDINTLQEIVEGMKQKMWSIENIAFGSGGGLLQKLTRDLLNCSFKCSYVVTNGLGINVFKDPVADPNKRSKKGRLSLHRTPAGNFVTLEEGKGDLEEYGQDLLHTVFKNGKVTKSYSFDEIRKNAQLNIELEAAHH

SMILES	IC50 [µM]
Nc1ccc(/C=C/C(=O)NCC[C@@H]2[C@H]3CN(C(=O)c4ccc(C(=O)O)cc4)C[C@@H]23)cn1 [Example 179, 4-((1R,5S,6s)-6-(2-((E)-3-(6-aminopyridin-3-yl)acrylamido)ethyl)-3-azabicyclo[3.1.0]hexane-3-carbonyl)benzoic acid]	1 to 29
CC(C)(C)OC(=O)N1C[C@@H]2[C@@H](CNC(=O)c3cc(-c4cccnc4)on3)[C@@H]2C1 [Example 231, (1R,5S,6s)-tert-butyl 6-((5-(pyridin-3-yl)isoxazole-3-carboxamido)methyl)-3-azabicyclo[3.1.0]hexane-3-carboxylate]	1 to 29
O=C(NCC[C@@H]1[C@H]2CN(S(=O)(=O)C3CCOCC3)C[C@@H]12)c1cc2ccncc2o1 [Example 73, N-(2-((1R,5S,6s)-3-((tetrahydro-2H-pyran-4-yl)sulfonyl)-3-azabicyclo[3.1.0]hexan-6-yl)ethyl)furo[2,3-c]pyridine-2-carboxamide]	1 to 29
CC(C)(C)OC(=O)N1CCC2CC(CNC(=O)N3Cc4ccncc4C3)CC2C1 (stereo not drawn) [Example 272, tert-butyl 6-((2,3-dihydro-1H-pyrrolo[3,4-c]pyridine-2-carboxamido)methyl)hexahydro-1H-cyclopenta[c]pyridine-2(3H)-carboxylate]	0.01 to 0.49
O=C(NCC[C@@H]1[C@H]2CN(c3nc4ccccc4s3)C[C@@H]12)c1cc2ccncc2o1 [Example 120, N-(2-((1R,5S,6s)-3-(benzo[d]thiazol-2-yl)-3-azabicyclo[3.1.0]hexan-6-yl)ethyl)furo[2,3-c]pyridine-2-carboxamide]	0.01 to 0.49
O=C(NCC[C@@H]1[C@H]2CN(C(=O)OC3CCCC3)C[C@@H]12)c1cc2ccncc2o1 [Example 71, (1R,5S,6s)-(cyclopentyl) 6-(2-(furo[2,3-c]pyridine-2-carboxamido)ethyl)-3-azabicyclo[3.1.0]hexane-3-carboxylate]	0.01 to 0.49
Nc1ccc(/C=C/C(=O)NC[C@@H]2[C@H]3CN(C(=O)c4ccccc4)C[C@@H]23)cn1 [Example 240, (E)-3-(6-aminopyridin-3-yl)-N-(((1R,5S,6s)-3-benzoyl-3-azabicyclo[3.1.0]hexan-6-yl)methyl)acrylamide]	1 to 29
CCN(CC)C(=O)N1C[C@@H]2[C@@H](CCNC(=O)/C=C/c3ccc(N)nc3)[C@@H]2C1 [Example 33, (1R,5S,6s)-6-(2-((E)-3-(6-aminopyridin-3-yl)acrylamido)ethyl)-N,N-diethyl-3-azabicyclo[3.1.0]hexane-3-carboxamide]	0.01 to 0.49
Nc1ccc(/C=C/C(=O)NCC[C@@H]2[C@H]3CN(C(=O)c4cccc(F)c4)C[C@@H]23)cn1 [Example 89, (E)-3-(6-aminopyridin-3-yl)-N-(2-((1R,5S,6s)-3-(3-fluorobenzoyl)-3-azabicyclo[3.1.0]hexan-6-yl)ethyl)acrylamide]	0.01 to 0.49
O=C(NCC[C@@H]1[C@H]2CN(C(=O)CC3CCOCC3)C[C@@H]12)c1cc(-c2cccnc2)on1 [Example 109, 5-(pyridin-3-yl)-N-(2-((1R,5S,6s)-3-(2-(tetrahydro-2H-pyran-4-yl)acetyl)-3-azabicyclo[3.1.0]hexan-6-yl)ethyl)isoxazole-3-carboxamide]	0.01 to 0.49
Nc1ccc(/C=C/C(=O)NCC[C@@H]2[C@H]3CN(S(=O)(=O)c4ccc(F)cc4)C[C@@H]23)cn1 [Example 46, (E)-3-(6-aminopyridin-3-yl)-N-(2-((1R,5S,6s)-3-((4-fluorophenyl)sulfonyl)-3-azabicyclo[3.1.0]hexan-6-yl)ethyl)acrylamide]	0.01 to 0.49
O=C(NCC[C@@H]1[C@H]2CN(C(=O)Nc3ccccc3)C[C@@H]12)c1cnc2nccn2c1 [Example 78, N-(2-((1R,5S,6s)-3-(phenylcarbamoyl)-3-azabicyclo[3.1.0]hexan-6-yl)ethyl)imidazo[1,2-a]pyrimidine-6-carboxamide]	0.5 to 0.99
CC(C)(C)OC(=O)N1C[C@@H]2[C@@H](CCNC(=O)N3Cc4ccccc4C3)[C@@H]2C1 [Example 15, (1R,5S,6s)-tert-butyl 6-(2-(isoindoline-2-carboxamido)ethyl)-3-azabicyclo[3.1.0]hexane-3-carboxylate]	0.01 to 0.49

Same assay, conditions: [HDB]; read-out: NAMPT IC50 (μM) [HDB]

SMILES	IC50 [µM]
COc1cc(N2C[C@@H]3[C@@H](CCNC(=O)/C=C/c4cccnc4)[C@@H]3C2)ccn1 [Example 161, (E)-N-(2-((1R,5S,6S)-3-(2-methoxypyridin-4-yl)-3-azabicyclo[3.1.0]hexan-6-yl)ethyl)-3-(pyridin-3-yl)acrylamide]	0.01 to 0.49
Nc1ccc(/C=C/C(=O)NCC[C@@H]2[C@H]3CN(C(=O)c4ccc(C(=O)O)cc4)C[C@@H]23)cn1 [Example 179, 4-((1R,5S,6s)-6-(2-((E)-3-(6-aminopyridin-3-yl)acrylamido)ethyl)-3-azabicyclo[3.1.0]hexane-3-carbonyl)benzoic acid]	0.5 to 0.99
O=C(/C=C/c1cccnc1)NCC[C@@H]1[C@H]2CN(c3nc(Cl)ncc3F)C[C@@H]12 [Example 172, (E)-N-(2-((1R,5S,6s)-3-(2-chloro-5-fluoropyrimidin-4-yl)-3-azabicyclo[3.1.0]hexan-6-yl)ethyl)-3-(pyridin-3-yl)acrylamide]	< 0.01
O=C(/C=C/c1cccnc1)NCC[C@@H]1[C@H]2CN(c3nc(OCCO)ncc3F)C[C@@H]12 [Example 314, (E)-N-(2-((1R,5S,6s)-3-(5-fluoro-2-(2-hydroxyethoxy)pyrimidin-4-yl)-3-azabicyclo[3.1.0]hexan-6-yl)ethyl)-3-(pyridin-3-yl)acrylamide]	0.01 to 0.49
O=C(/C=C/c1cccnc1)NCC[C@@]1(F)[C@@H]2CN(Cc3ccccc3)C[C@@H]21 [Example 289, (E)-N-(2-((1R,5S,6r)-3-benzyl-6-fluoro-3-azabicyclo[3.1.0]hexan-6-yl)ethyl)-3-(pyridin-3-yl)acrylamide]	0.01 to 0.49
CP(C)(=O)c1cccc(N2C[C@@H]3[C@@H](CCNC(=O)/C=C/c4cccnc4)[C@@H]3C2)c1 [Example 288, (E)-N-(2-((1R,5S,6s)-3-(3-(dimethylphosphoryl)phenyl)-3-azabicyclo[3.1.0]hexan-6-yl)ethyl)-3-(pyridin-3-yl)acrylamide]	0.01 to 0.49
O=C(/C=C/c1ccc(O)nc1)NCC[C@@H]1[C@H]2CN(c3nc(Cl)ncc3F)C[C@@H]12 [Example 211, (E)-N-(2-((1R,5S,6s)-3-(2-chloro-5-fluoropyrimidin-4-yl)-3-azabicyclo[3.1.0]hexan-6-yl)ethyl)-3-(6-hydroxypyridin-3-yl)acrylamide]	0.01 to 0.49
O=C(/C=C/c1ccccc1)NCC[C@@H]1[C@H]2CN(c3nc(Cl)ncc3F)C[C@@H]12 [Example 210, N-(2-((1R,5S,6s)-3-(2-chloro-5-fluoropyrimidin-4-yl)-3-azabicyclo[3.1.0]hexan-6-yl)ethyl)cinnamamide]	0.01 to 0.49
O=C(NCC[C@@H]1[C@H]2CN(c3nc(Cl)ncc3F)C[C@@H]12)N1Cc2ccccc2C1 [Example 225, N-(2-((1R,5S,6s)-3-(2-chloro-5-fluoropyrimidin-4-yl)-3-azabicyclo[3.1.0]hexan-6-yl)ethyl)isoindoline-2-carboxamide]	< 0.01
CNc1ncc(F)c(N2C[C@@H]3[C@@H](CCNC(=O)/C=C/c4cccnc4)[C@@H]3C2)n1 [Example 327, (E)-N-(2-((1R,5S,6s)-3-(5-fluoro-2-(methylamino)pyrimidin-4-yl)-3-azabicyclo[3.1.0]hexan-6-yl)ethyl)-3-(pyridin-3-yl)acrylamide]	< 0.01
O=C(NCC[C@@H]1[C@H]2CN(c3nc(Cl)ncc3F)C[C@@H]12)c1ccc2nccn2c1 [Example 203, N-(2-((1R,5S,6s)-3-(2-chloro-5-fluoropyrimidin-4-yl)-3-azabicyclo[3.1.0]hexan-6-yl)ethyl)imidazo[1,2-a]pyridine-6-carboxamide]	0.01 to 0.49
